Patent US8153397B2 (priority 1993, dated 2012)
“Also recorded” adds a separate entry of the source.

Target: BoNT/A LC (Clostridium botulinum, UniProt P0DPI0)
Assay type: biochemical

Chain of BoNT/A LC (P0DPI0 3-448, added parts left off): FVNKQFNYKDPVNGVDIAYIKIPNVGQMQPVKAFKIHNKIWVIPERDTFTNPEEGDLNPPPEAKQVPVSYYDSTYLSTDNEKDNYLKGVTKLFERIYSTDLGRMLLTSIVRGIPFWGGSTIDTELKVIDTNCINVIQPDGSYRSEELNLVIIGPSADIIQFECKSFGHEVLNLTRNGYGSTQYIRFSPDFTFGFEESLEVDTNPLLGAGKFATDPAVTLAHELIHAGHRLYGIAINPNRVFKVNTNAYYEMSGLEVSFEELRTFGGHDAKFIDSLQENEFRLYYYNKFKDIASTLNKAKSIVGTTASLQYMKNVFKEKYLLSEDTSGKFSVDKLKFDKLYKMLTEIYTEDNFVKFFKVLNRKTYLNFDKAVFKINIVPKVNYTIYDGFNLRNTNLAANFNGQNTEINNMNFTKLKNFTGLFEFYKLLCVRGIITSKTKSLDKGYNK

Row | SMILES | effect on truncation and fragmentation of the LC
1 | O=C(O)CN(CCN(CC(=O)O)CC(=O)O)CC(=O)O [EDTA] | failed to protect; also recorded: little effect on proteolysis
2 | c1ccc(CN(CCN(Cc2ccccn2)Cc2ccccn2)Cc2ccccn2)nc1 [TPEN] | largely protected; also recorded: significantly reduced the rate of conversion of IA to IB
